Data set [1] in a line: Cataleptogenic power (propensity to induce extrapyramidal side effects). The note with it: rat, in vivo, ip; rats, i.p. administration; read-out: Catalepsy ED50.
The next data set concerns the target D2 receptors (Homo sapiens, UniProt P14416). As to the kind of experiment: Affinity for D2-type receptors by displacement of (3H) YM-09151-2. The format is binding. The note with it: mean of at least 3 experiments, read-out: D2 pKi (converted). The procedure: 1- Measurement of the affinity of the compounds of the invention for the D2 receptors. The affinity of the compounds of the invention for the D2-type receptors was determined by measuring the displacement of (^3H) YM-09151-2 (NET-1004 70-87 Ci/mmol), according to the method described in Naunyn-Schimiedeberg's Arch. Pharmacol. Methods, 1985, 329, 333. The pKi values (-log Ki) are given in the form of a mean±SEM of at least 3 experiments.

For data set [2], the system named is behavioral patterns induced by methylphenidate. Description: Inhibition of behavioral patterns induced by methylphenidate (in vivo antidopaminergic activity). Conditions: Rattus norvegicus, ip, read-out: Normalization ED50.

Structures can show the parent of a compound that is named as a salt. Where only a bound is given, the exact number is not on record here.

As a reminder, the melting point is the temperature, or range, at which the solid turns liquid. A word on the ED50: it is the midpoint of the dose-response relation.

Chain of D2 receptors (P14416 whole entry): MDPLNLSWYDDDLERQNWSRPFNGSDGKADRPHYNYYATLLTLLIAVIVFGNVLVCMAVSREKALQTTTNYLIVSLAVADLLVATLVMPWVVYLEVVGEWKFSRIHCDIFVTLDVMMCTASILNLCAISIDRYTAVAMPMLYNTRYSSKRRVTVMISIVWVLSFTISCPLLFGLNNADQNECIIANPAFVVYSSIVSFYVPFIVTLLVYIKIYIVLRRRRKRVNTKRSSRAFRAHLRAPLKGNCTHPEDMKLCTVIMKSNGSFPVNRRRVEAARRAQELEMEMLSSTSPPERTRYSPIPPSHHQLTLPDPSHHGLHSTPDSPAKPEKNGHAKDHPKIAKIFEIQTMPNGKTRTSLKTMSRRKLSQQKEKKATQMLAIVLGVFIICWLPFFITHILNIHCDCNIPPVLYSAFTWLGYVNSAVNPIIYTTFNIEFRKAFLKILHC

`CC(C)Oc1ccccc1OCCNCc1cccc(OC2CC3C=CC2C3)c1` (stereo not drawn) (as salt: oxalate) [Compound 1.4] gave a melting point of 177 °C. Still for that read-out and setting: as for `CC(C)Oc1ccccc1OCCNCc1cc(OC2CCCC2)ccc1F` (as salt: oxalate) [Compound 1.12], the figure is 159 °C. Consider `CC(C)Oc1ccccc1OCCNCc1cccc(OC2CC3C=CC2C3)c1` (stereo not drawn) [Compound 1.4], for which the 50% effective dose (ED50) in data set [1] is more than 40 mg/kg; in data set [2] it was 5 mg/kg. In addition, the Ki on D2 receptors is 2.75 nM. `CC(C)Oc1ccccc1OCCNCc1cc(OC2CCCC2)ccc1F` [Compound 1.12]: the ED50 is more than 40 mg/kg in data set [1] and 1.25 mg/kg in data set [2]. Moreover, at D2 receptors, the Ki is 0.741 nM. Take `Cc1nc2n(c(=O)c1CCN1CCC(c3noc4cc(F)ccc34)CC1)CCCC2` [Risperidone, reference compound]: in data set [2], the ED50 stood at 2.9 mg/kg.

Values taken from patent US6350913B1, “3-alkoxybenzylamine derivatives and their use as medicines for treating schizophrenia” (Pierre Fabre Medicament, priority 1998, dated 2002).
